Measured values taken from US20200157048A1, “(2E,4E)-5-PHENYL-PENTA-2,4-DIEN-1-ONE DERIVATIVE” (BIOWAY., INC, priority 2018, published 2020).

Columns and labels:
3T3-L1 preadipocytes [1] = assay: Oil-Red-O staining of lipid droplets after induction of 3T3-L1 preadipocyte differentiation; format: cell-based, mouse; settings: 50 μM test material; differentiated 3T3-L1 cells
Procedure: (§1) 3T3-L1 mouse preadipocytes (American Type Culture Collection) were incubated in an incubator set to 37° C., humidity of 95% and 5% CO2. The 3T3-L1 mouse preadipocytes were sufficiently proliferated using a proliferation medium (Dulbecco's modified Eagle's medium (DMEM) supplemented with 5% fetal bovine serum (FBS), 100 U/mL of penicillin and 100 μg/mL of streptomycin), and treated with a differentiation medium (DMEM containing 5% FBS, 0.5 mM 3-isobutyl-1-methylxanthine, […] dexamethasone and 10 μg/mL insulin) for 4 days. Afterward, the 3T3-L1 mouse preadipocytes were treated with an induction medium (DMEM containing 5% FBS and 10 μg/mL insulin, DMEM containing 5% FBS) for 2 days, and to maintain differentiated adipocytes until the end of the experiment, the induction medium was replaced every day. The 3T3-L1 cells were used in Experimental Examples 1, 2, and 3.
To confirm capacity of inhibiting the formation of lipid droplets of a test material, 3T3-L1 cells, which are preadipocytes, were induced to differentiate into adipocytes, and then the lipid droplets were stained through the Oil-Red-O staining.
First, after preadipocytes, 3T3-L1 cells, were incubated in a dish having a diameter of 10 cm^2, excluding G1 and G2, the cells were treated with 50 μM of a test material previously diluted with a culture medium (refer to Table 2).
Next, for staining, first, the cell supernatant present in a well was removed, and fixed with 4% paraformaldehyde. Afterward, after adding a 100% 1,2-propanediol dehydration solution, the resulting sample was incubated for 5 minutes, and then an Oil-Red-O stain solution was added for staining of lipid droplets. After the Oil-Red-O staining, an 85% 1,2-propanediol stain differential solution was added for washing.
Finally, after filling a well with D.W. without drying the stained well, the formation of lipid droplets was confirmed by observation using a microscope.
After confirming the formation of lipid droplets using Oil-Red-O staining, a part stained with isopropanol was dissolved, and the degree of staining lipid droplets was confirmed by absorbance at 540 nm. The increase/decrease rate, compared to the normal control, was evaluated using an optical density (OD) value.

3T3-L1 preadipocytes [2] = assay: Triglyceride content after induction of 3T3-L1 preadipocyte differentiation; format: cell-based, mouse; settings: differentiated 3T3-L1 cells; predetermined concentration of test material
Procedure: as §1
Preadipocytes, 3T3-L1 cells, were incubated in a dish having a diameter of 10 cm^2 by the same method as described in Experimental Example 1, and then treated with a predetermined concentration of a test material diluted with a culture medium. After treatment, a triglyceride content was confirmed using an assay kit.

3T3-L1 preadipocytes [3] = assay: Glycerol content after induction of 3T3-L1 preadipocyte differentiation; format: cell-based, mouse; settings: differentiated 3T3-L1 cells; predetermined concentration of test material
Procedure: as §1
Preadipocytes, 3T3-L1 cells, were incubated in a dish having a diameter of 10 cm^2 by the same method as described in Experimental Example 1, and then treated with a predetermined concentration of a test material diluted with a culture medium. After treatment, a glycerol content was confirmed using an assay kit.

SIRT1 = target: T1, SIRT1 (Homo sapiens, UniProt Q96EB6); assay: SIRT1 direct fluorescent assay; format: biochemical
T1 construct: purchased Cayman (Ann Arbor, Mich., USA)
T1 sequence (Q96EB6 1-747): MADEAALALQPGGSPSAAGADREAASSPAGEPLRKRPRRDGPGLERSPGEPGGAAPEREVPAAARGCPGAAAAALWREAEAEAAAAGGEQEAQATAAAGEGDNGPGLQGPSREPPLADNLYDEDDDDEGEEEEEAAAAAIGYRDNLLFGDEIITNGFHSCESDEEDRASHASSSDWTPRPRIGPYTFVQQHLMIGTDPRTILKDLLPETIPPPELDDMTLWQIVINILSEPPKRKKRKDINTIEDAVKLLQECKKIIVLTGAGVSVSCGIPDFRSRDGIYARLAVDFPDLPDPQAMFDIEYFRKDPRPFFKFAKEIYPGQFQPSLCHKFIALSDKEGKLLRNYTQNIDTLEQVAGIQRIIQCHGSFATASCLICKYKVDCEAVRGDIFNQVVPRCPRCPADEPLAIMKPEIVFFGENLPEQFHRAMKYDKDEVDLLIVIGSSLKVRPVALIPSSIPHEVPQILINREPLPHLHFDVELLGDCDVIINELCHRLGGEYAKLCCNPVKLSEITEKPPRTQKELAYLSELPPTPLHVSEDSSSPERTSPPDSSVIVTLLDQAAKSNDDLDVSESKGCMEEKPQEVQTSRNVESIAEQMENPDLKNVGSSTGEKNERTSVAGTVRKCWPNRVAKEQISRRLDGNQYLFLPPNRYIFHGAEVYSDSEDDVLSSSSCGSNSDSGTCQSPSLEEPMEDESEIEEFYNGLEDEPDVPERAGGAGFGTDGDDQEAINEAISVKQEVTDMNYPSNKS
Procedure: All materials were provided from a Sirt1 direct fluorescent screening assay kit (Cayman, Ann Arbor, Mich., USA).
SIRT1, p53 conjugated aminomethyl coumarin (AMC) protein, and 3 mM NAD^+ were added to a diluted analysis buffer (50 mM Tris-HCl, pH 8.0, 137 mM NaCl, 2.7 mM KCl, and 1 mM MgCl2).
25 μL of the analysis buffer, 5 μL of diluted SIRT1, and 5 μL of a solvent were added to each of three 100% initial activity wells of a 96-well plate.
30 μL of the analysis buffer and 5 μL of a solvent were added to each of three background wells of the 96-well plate.
25 μL of the analysis buffer, 5 μL of diluted SIRT1, and 5 μL of a diluted test compound were added to each of three sample wells of the 96-well plate. The final DMSO concentration was less than 2%.
15 μL of a 3 mM NAD^+-containing substrate solution was added to all wells to begin the reaction. The 96-well plate was covered with a plate cover, and then incubated in a shaker at room temperature (25 to 30° C.) for 45 minutes.
A stop/developing solution was prepared. To prepare the final 5 mL solution, 200 μL of nicotinamide (NAM, Sigma-Aldrich) was added to a color developing powder weighing 30 mg, 4.8 mL of a diluted analysis buffer was added thereto, and the resulting mixture was stirred until the powder became a solution.
The plate cover was removed, and 50 μL of the stop/developing solution was added to each well.
The 96-well plate was covered with a plate cover, and incubated at room temperature (25 to 30° C.) for 30 minutes.
The plate cover was removed, and the plate was read using Cytation 5 at an excitation wavelength of 360 nm and an emission wavelength of 450 nm.
The mean fluorescence of each sample was measured.
The fluorescence of the background wells was subtracted from the fluorescence of the 100% initial activity wells and sample wells.
To determine the percent of each sample, each sample value was subtracted from the 100% initial activity value, and the resulting value was divided by the 100% initial activity value and then multiplied by 100 and added to 100, which was expressed as a percentage.

| Structure (SMILES) | amount of stained lipid droplets (Oil-Red-O dissolved in isopropanol, absorbance at 540 nm, FIG. 2) (3T3-L1 preadipocytes [1]) | triglyceride content (FIG. 3) (3T3-L1 preadipocytes [2]) | glycerol content (FIG. 4) (3T3-L1 preadipocytes [3]) | increase of SIRT1 activity (FIG. 18) (SIRT1; 2 μM) | increase of SIRT1 activity (FIG. 18) (SIRT1; 10 μM) [%] |
| --- | --- | --- | --- | --- | --- |
| CSc1ccc(/C=C/C=C/C(=O)N2CCCC(O)C2)cc1 (centres unmarked) [R-7, (2E,4E)-1-(3-hydroxypiperidine-1-yl)-5-(4-(methylthio)phenyl)penta-2,4-dien-1-one] | less than that of the test groups treated with R-3 and 4 | lower than that of the test group treated with R-3 | lower than that of the test group treated with R-3 |  |  |
| CSc1ccc(/C=C/C=C/C(=O)N2CCC(O)CC2)cc1 [R-8, (2E,4E)-1-(4-hydroxypiperidine-1-yl)-5-(4-(methylthio)phenyl)penta-2,4-dien-1-one] | less than that of the test groups treated with R-3 and 4 | lower than that of the test group treated with R-3 | lower than that of the test group treated with R-3 |  |  |
| COC1CCN(C(=O)/C=C/C=C/c2ccc(SC)cc2)CC1 [R-9, (2E,4E)-1-(4-methoxypiperidine-1-yl)-5-(4-(methylthio)phenyl)penta-2,4-dien-1-one] | less than that of the test groups treated with R-3 and 4 | lower than that of the test group treated with R-3 | lower than that of the test group treated with R-3 |  |  |
| CSc1ccc(/C=C/C=C/C(=O)N2CCC(NC(C)=O)CC2)cc1 [R-11, N-(1-((2E,4E)-5-(4-(methylthio)phenyl)penta-2,4-dienoyl)piperidine-4-yl)acetamide] | less than that of the test groups treated with R-3 and 4 | lower than that of the test group treated with R-3 | lower than that of the test group treated with R-3 |  |  |
| COc1ccc(/C=C/C=C/C(=O)N2CCN(C)CC2)cc1 [R-15, (2E,4E)-5-(4-methoxyphenyl)-1-(4-methylpiperazine-1-yl)penta-2,4-dien-1-one] | less than that of the test groups treated with R-3 and 4 | lower than that of the test group treated with R-3 | lower than that of the test group treated with R-3 |  |  |
| CSc1ccc(/C=C/C=C/C(=O)N2CCN(C(C)=O)CC2)cc1 [R-17, (2E,4E)-1-(4-acetylpiperazine-1-yl)-5-(4-(methylthio)phenyl)penta-2,4-dien-1-one] | less than that of the test groups treated with R-3 and 4 | lower than that of the test group treated with R-3 | lower than that of the test group treated with R-3 |  |  |
| CCOC(=O)N1CCN(C(=O)/C=C/C=C/c2cccc(OC)c2)CC1 [R-22, Ethyl ((2E,4E)-5-(3-methoxyphenyl)penta-2,4-dienoyl)piperazine-1-carboxylate] |  |  |  | about 5% |  |
| COc1ccc(/C=C/C=C/C(=O)N2CCN(C(=O)OC(C)C)CC2)cc1 [R-26, Isopropyl 4-((2E,4E)-5-(4-methoxyphenyl)penta-2,4-dienoyl)piperazine-1-carboxylate] |  |  |  |  | ≥ 10 |
| CSc1ccc(/C=C/C=C/C(=O)N2CCN(C(=O)OC(C)(C)C)CC2)cc1 [R-28, Tert-butyl 4-((2E,4E)-5-(4-(methylthio)phenyl)penta-2,4-dienoyl)piperazine-1-carboxylate] | less than that of the test groups treated with R-3 and 4 | lower than that of the test group treated with R-3 | lower than that of the test group treated with R-3 |  |  |
| COc1ccc(/C=C/C=C/C(=O)N2CCOCC2)cc1 [R-29, (2E,4E)-5-(4-methoxyphenyl)-1-morpholinopenta-2,4-dien-1-one] | less than that of the test groups treated with R-3 and 4 | lower than that of the test group treated with R-3 | lower than that of the test group treated with R-3 |  |  |
| CSc1ccc(/C=C/C=C/C(=O)N2CCOCC2)cc1 [R-30, (2E,4E)-5-(4-(methylthio)phenyl)-1-morpholinopenta-2,4-dien-1-one] | less than that of the test groups treated with R-3 and 4 | lower than that of the test group treated with R-3 | lower than that of the test group treated with R-3 |  |  |
